Test results taken from paper PMC9308754 (Chembiochem, 2022).
Where “and” joins values, the source holds several entries; their conditions need not be identical. Equal entries are not always repeated. Where two headings read alike, the source gives them in different places.

What was measured:
hHDAC1 = hHDAC1 (Homo sapiens, UniProt Q13547); format: biochemical
acetyl tubulin = experiment: Western blotting, acetylated tubulin in HL60 cells; format: cell-based; conditions: Western blot, 48 a/b at 10 μM
HDAC10 [1] = biological target: T1, HDAC10 (Homo sapiens, UniProt Q969S8); experiment: BRET assay for HDAC10; format: cell-based
T1 sequence (Q969S8 1-669): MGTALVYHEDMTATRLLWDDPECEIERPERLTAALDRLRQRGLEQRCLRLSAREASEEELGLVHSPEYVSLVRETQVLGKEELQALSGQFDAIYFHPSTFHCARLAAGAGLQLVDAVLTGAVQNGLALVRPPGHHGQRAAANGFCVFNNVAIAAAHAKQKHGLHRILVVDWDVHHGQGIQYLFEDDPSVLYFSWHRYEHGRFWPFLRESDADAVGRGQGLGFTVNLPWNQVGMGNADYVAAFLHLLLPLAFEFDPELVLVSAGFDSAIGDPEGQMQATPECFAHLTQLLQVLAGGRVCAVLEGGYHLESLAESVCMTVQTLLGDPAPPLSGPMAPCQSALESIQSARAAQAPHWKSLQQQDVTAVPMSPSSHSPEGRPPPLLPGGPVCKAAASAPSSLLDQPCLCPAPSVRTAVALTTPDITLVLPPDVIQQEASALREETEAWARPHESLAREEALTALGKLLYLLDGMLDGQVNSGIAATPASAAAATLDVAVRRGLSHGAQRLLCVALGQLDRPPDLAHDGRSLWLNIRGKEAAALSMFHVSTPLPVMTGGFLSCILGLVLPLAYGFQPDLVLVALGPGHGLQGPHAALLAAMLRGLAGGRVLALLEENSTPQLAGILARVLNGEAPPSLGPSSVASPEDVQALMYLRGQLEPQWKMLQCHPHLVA

hHDAC6 = biological target: T2, hHDAC6 (Homo sapiens, UniProt Q9UBN7); experiment: hHDAC6 activity assay; format: biochemical
T2 sequence (Q9UBN7 1-1215): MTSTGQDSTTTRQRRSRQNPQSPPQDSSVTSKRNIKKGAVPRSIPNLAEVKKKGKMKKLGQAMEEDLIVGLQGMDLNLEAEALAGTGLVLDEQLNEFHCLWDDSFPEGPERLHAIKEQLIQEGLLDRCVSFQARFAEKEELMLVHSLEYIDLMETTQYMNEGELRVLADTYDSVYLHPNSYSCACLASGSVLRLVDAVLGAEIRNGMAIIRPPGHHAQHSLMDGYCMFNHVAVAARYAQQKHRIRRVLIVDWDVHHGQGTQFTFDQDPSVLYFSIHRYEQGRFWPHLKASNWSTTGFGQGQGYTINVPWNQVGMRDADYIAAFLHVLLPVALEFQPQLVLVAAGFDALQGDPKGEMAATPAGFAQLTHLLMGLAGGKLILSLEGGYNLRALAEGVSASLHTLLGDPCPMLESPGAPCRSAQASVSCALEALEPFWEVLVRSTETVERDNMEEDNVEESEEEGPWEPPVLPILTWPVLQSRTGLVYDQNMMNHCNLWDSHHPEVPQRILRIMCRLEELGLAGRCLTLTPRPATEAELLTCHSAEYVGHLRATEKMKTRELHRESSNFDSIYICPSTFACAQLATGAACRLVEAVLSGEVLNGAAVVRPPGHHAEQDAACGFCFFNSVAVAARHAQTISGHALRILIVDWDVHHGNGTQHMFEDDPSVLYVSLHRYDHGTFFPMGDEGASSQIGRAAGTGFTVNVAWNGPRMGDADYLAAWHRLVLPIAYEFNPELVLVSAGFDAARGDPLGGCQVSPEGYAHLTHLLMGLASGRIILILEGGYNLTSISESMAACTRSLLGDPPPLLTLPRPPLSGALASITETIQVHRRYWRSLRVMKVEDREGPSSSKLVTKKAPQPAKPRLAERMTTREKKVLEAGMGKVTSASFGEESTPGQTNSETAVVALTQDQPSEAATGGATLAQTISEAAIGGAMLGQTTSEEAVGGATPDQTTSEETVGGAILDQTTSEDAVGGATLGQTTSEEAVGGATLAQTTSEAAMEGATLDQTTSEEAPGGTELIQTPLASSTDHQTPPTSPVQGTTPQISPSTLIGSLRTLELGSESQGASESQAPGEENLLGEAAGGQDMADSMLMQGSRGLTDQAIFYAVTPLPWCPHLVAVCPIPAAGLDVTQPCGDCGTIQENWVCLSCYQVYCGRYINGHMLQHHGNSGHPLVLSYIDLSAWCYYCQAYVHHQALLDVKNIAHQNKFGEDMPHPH

HDAC10 [2] = biological target: T1, HDAC10; experiment: HDAC10 binding assay
hHDAC8 = biological target: T3, hHDAC8 (Homo sapiens, UniProt Q9BY41); experiment: biochemical
T3 sequence (Q9BY41 1-377): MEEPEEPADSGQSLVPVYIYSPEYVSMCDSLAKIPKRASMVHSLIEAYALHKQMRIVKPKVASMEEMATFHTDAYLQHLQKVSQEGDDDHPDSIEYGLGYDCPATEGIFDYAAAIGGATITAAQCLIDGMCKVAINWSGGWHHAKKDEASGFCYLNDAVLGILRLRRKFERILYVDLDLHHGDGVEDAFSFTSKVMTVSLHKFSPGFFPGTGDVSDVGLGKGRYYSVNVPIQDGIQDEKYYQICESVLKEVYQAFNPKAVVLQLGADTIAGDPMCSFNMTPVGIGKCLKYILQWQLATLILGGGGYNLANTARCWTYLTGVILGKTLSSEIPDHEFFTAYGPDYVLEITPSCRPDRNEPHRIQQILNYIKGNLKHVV

acetyl Histone H3 = experiment: Western blotting, acetylation of histone H3 in HL60 cells; format: cell-based; conditions: Western blot, 48 a/b at 10 μM
SK‐N‐BE(2)‐C cells [3] = experiment: LysoTracker assay, flow cytometry; format: cell-based; conditions: for increase of LysoTracker signal normalized against DMSO control: concentration differs per compound (Table 8)
drHDAC10 [4] = biological target: T4, drHDAC10 (Danio rerio, UniProt F1QCV2); experiment: Proof of substrate conversion by HPLC; format: biochemical, Danio rerio (zebrafish); conditions: drHDAC10 0.027 mg/mL, up to 45 min
T4 sequence (F1QCV2 2-675 limits assumed): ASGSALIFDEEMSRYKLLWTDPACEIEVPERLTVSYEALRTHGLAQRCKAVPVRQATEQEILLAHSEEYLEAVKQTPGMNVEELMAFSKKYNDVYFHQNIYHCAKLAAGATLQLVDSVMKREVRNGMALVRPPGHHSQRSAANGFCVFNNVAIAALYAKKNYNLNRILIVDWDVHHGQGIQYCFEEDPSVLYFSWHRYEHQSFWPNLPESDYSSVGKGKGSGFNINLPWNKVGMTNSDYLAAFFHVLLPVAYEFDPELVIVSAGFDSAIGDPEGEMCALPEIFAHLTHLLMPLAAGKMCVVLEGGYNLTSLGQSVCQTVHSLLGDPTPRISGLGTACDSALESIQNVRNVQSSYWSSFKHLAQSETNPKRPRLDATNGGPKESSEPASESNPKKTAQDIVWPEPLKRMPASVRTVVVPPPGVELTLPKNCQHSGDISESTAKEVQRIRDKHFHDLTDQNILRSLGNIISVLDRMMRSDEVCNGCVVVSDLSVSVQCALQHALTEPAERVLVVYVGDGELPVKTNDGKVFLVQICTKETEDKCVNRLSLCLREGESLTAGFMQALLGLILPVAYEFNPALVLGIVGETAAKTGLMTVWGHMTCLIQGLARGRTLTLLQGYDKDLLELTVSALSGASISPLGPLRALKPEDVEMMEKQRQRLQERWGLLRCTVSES

SK‐N‐BE(2)‐C cells [5] = experiment: LysoTracker assay, fluorescence microscopy; format: cell-based; conditions: 24 h after treatment
drHDAC10 [6] = biological target: T4, drHDAC10; experiment: NDA assay drHDAC10; conditions: for inhibition at 0.1 µM / inhibition at 1 µM: read-out: NDA assay drHDAC10 % inhibition
HDAC10 [7] = biological target: T1, HDAC10; conditions: read-out: BRET assay (EC50); in‐cellulo; ref 32 (Géraldy et al.); cited from earlier work
SK‐N‐BE(2)‐C cells [8] = conditions: 7.5 μM, flow cytometry; ref 16b; cited from earlier work
HDAC10 [9] = biological target: T1, HDAC10; conditions: TR‐FRET and BRET displacement assays; cited from earlier work
[10] = @ 1 (concentration unit not given)
[11] = @ 10 (concentration unit not given)

Chain of hHDAC1 (Q13547 whole entry): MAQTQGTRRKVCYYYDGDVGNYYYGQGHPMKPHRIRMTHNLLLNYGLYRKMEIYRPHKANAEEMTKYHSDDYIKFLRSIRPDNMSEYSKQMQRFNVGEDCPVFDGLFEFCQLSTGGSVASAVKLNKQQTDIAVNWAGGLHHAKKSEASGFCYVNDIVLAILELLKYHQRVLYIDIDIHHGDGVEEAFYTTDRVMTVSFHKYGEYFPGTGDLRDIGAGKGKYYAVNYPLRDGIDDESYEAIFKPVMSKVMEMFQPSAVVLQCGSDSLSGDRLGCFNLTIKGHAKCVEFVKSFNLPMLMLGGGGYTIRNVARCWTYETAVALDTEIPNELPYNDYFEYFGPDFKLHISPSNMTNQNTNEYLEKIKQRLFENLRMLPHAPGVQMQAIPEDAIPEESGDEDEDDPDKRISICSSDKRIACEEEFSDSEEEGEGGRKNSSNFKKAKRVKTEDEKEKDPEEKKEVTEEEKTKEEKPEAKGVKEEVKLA

## O=C(NO)C1CCN(CCNCc2ccccc2)CC1 [48 a, 1‐(2‐(Benzylamino)ethyl)‐N‐hydroxypiperidine‐4‐carboxamide]
hHDAC1; [10]
  hHDAC1 (ZMAL) % inhibition: < 10%
hHDAC1; [11]
  hHDAC1 (ZMAL) % inhibition: 20%
Acetyl tubulin
  effect on acetyl tubulin (HDAC6): no increase
HDAC10 [1]
  EC50: 0.026 µM
hHDAC6; [10]
  hHDAC6 (ZMAL) % inhibition: <10 % @ 10 <10 % @ 1
hHDAC6; [11]
  hHDAC6 (ZMAL) % inhibition: <10 % @ 10 <10 % @ 1
HDAC10 [2]
  IC50: 0.005 µM
hHDAC8; hHDAC8 (FDL) IC50
  IC50: 1.97 ± 0.309 µM
hHDAC8; inhibition of HDAC8
  IC50: ~1 µM
Acetyl Histone H3
  effect on acetyl Histone H3 (class I, representative HDAC1): no increase

## O=C(NO)C1CCN(CCNCc2ccc(Br)cc2)CC1 [48 b, 1‐(2‐((4‐Bromobenzyl)amino)ethyl)‐N‐hydroxypiperidine‐4‐carboxamide]
hHDAC1; [10]
  hHDAC1 (ZMAL) % inhibition: < 10%
hHDAC1; [11]
  hHDAC1 (ZMAL) % inhibition: 11%
Acetyl tubulin
  effect on acetyl tubulin (HDAC6): no increase
HDAC10 [1]
  EC50: 0.01 µM
hHDAC6; [10]
  hHDAC6 (ZMAL) % inhibition: < 10%
hHDAC6; [11]
  hHDAC6 (ZMAL) % inhibition: 11%
HDAC10 [2]
  IC50: 0.002 µM
hHDAC8; inhibition of HDAC8
  IC50: ~1 µM
SK‐N‐BE(2)‐C cells [3]; 10 μM
  LysoTracker effect (relative signal intensity as compared to control): 1.07±0.15
SK‐N‐BE(2)‐C cells [3]; 20.0 μM
  LysoTracker effect (relative signal intensity as compared to control): 1.04±0.05
SK‐N‐BE(2)‐C cells [3]
  increase of LysoTracker signal normalized against DMSO control: did not show an increase in signal
Acetyl Histone H3
  effect on acetyl Histone H3 (class I, representative HDAC1): no increase

## CC(=O)NCCCCNCCC(=O)Nc1ccc2c(C)cc(=O)oc2c1 [Ac‐spermidine‐AMC, 3‐((4‐Acetamidobutyl)amino)‐N‐(4‐methyl‐2‐oxo‐2H‐chromen‐7‐yl)propanamide]
drHDAC10 [4]
  maximal conversion by drHDAC10 (HPLC, fluorescamine derivatization): about 50%

## CN(C)Cc1c(C(=O)NCCOc2ccc(C(=O)NO)cc2)oc2ccccc12 [abexinostat]
SK‐N‐BE(2)‐C cells [5]
  accumulation of lysosomes, LysoTracker signal by fluorescence microscopy: very strong response
drHDAC10 [6]
  IC50: 0.134 ± 0.026 µM
  inhibition at 0.1 µM: 45%
  inhibition at 1 µM: > 95%
SK‐N‐BE(2)‐C cells [3]
  increase of LysoTracker signal normalized against DMSO control: up to 3 fold

## CCCCOc1ccc(CC(=O)NO)cc1 [bufexamac]
drHDAC10 [6]
  inhibition at 0.1 µM: 26%
  inhibition at 1 µM: 64%

## Nc1ccccc1NC(=O)c1ccc(CNc2nccc(-c3cccnc3)n2)cc1 [mocetinostat]
drHDAC10 [6]
  inhibition at 0.1 µM: < 10%
  inhibition at 1 µM: < 10%

## Cc1[nH]c2ccccc2c1CCNCc1ccc(/C=C/C(=O)NO)cc1 [panobinostat]
SK‐N‐BE(2)‐C cells [5]
  accumulation of lysosomes, LysoTracker signal by fluorescence microscopy: very strong response
drHDAC10 [6]
  inhibition at 0.1 µM: 65%
  inhibition at 1 µM: > 95%
SK‐N‐BE(2)‐C cells [3]
  increase of LysoTracker signal normalized against DMSO control: up to 3 fold

## Cn1cc(CNCC2CCN(c3ncc(C(=O)NO)cn3)CC2)c2ccccc21 [quisinostat]
HDAC10 [7]
  EC50: 0.04 µM
SK‐N‐BE(2)‐C cells [5]
  accumulation of lysosomes, LysoTracker signal by fluorescence microscopy: very strong response
drHDAC10 [6]
  IC50: 0.05 µM
  inhibition at 0.1 µM: 60%
  inhibition at 1 µM: 91%
SK‐N‐BE(2)‐C cells [3]
  increase of LysoTracker signal normalized against DMSO control: up to 3 fold

## O=C(CCCCCCC(=O)Nc1ccc([C@H]2O[C@@H](CSc3nc(-c4ccccc4)c(-c4ccccc4)o3)C[C@@H](c3ccc(CO)cc3)O2)cc1)NO [tubacin]
SK‐N‐BE(2)‐C cells [8]
  LysoTracker effect (relative signal intensity as compared to control): 1.1 and 1.1±0.07
SK‐N‐BE(2)‐C cells [5]
  accumulation of lysosomes, LysoTracker signal by fluorescence microscopy: No influence

## CN1CCc2c(c3ccccc3n2Cc2ccc(C(=O)NO)cc2)C1 [tubastatin A]
HDAC10 [9]
  HDAC10 binding in displacement assays: bound strongly
drHDAC10 [6]
  IC50: 0.03 ± 0.003 µM
  inhibition at 0.1 µM: 82%
  inhibition at 1 µM: > 95%

## O=C(CCCCCCC(=O)Nc1ccccc1)NO [vorinostat]
Acetyl tubulin
  effect on acetyl tubulin (HDAC6): robust hyperacetylation
drHDAC10 [6]
  IC50: 2 ± 0.24 µM
  inhibition at 0.1 µM: < 10%
  inhibition at 1 µM: 43%
Acetyl Histone H3
  effect on acetyl Histone H3 (class I, representative HDAC1): robust hyperacetylation
